The subject of one assay is biomass yield. Kind of assay: Concentration of weak organic acid required to reduce the biomass yield to 50% of the reference condition. The format is cell-based. As to conditions: concentration required to reduce the biomass yield to 50% of the reference condition.
In the next assay the target is HMGR from E. faecalis (Enterococcus faecalis, UniProt Q9FD70). As to conditions: class II HMGR, source E. faecalis; read-out: Km^NADPH; cited from earlier work.
In the next assay the target is T1, HMGR from A. fulgidus (Archaeoglobus fulgidus, UniProt O28538).
T1 sequence (O28538 1-436): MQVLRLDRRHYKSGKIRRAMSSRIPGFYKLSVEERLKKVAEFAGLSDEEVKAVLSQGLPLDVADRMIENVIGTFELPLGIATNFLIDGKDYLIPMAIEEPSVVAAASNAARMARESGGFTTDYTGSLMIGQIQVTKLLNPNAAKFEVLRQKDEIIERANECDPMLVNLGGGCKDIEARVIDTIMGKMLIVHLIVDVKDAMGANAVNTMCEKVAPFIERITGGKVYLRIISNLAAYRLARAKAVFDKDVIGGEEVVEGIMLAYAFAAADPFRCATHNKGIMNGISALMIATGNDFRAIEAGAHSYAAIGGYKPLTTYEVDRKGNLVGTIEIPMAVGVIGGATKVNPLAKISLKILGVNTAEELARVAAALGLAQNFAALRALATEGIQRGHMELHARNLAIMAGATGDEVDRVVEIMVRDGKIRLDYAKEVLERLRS
As to conditions: class II HMGR, source A. fulgidus, cited from earlier work.

A further assay deals with HMGR from S. aureus. As to conditions: class II HMGR, source S. aureus, cited from earlier work.
The target in another assay is T2, HMGR from P. mevalonii (Pseudomonas mevalonii, UniProt P13702).
T2 sequence (P13702 1-428): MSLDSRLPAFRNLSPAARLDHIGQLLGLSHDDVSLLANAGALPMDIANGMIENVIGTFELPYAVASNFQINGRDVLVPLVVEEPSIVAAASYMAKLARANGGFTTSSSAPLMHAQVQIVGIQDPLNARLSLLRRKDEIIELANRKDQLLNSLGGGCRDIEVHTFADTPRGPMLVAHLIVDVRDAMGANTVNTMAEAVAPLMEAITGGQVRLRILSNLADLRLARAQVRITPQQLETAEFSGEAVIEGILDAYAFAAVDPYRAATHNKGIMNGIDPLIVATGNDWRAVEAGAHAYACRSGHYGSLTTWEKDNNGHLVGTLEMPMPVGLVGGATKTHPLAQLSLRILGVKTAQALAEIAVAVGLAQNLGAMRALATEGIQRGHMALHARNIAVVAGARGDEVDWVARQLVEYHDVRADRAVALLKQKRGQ
As to conditions: class II HMGR, source P. mevalonii; read-out: Km^NADH; cited from earlier work.

Assay [1] deals with farnesene-producing strain. Kind of assay: Farnesene-producing strain treated with different concentrations of benzoic acid. The class given is cell-based. Conditions: FIG. 8. The protocol: Benzoic acid can be used to deplete ATP in the cell by forcing the cells to use ATP to pump out excess protons that are moved into the cytoplasm by the benzoyl […]. […] The yield (qP/qS) was calculated from measured specific sugar uptake rate and specific farnesene production rate.
Single colonies were grown on CSM agar plates, then picked into sterile 96-well microtiter plates (1.1 mL working volume Axygen) containing 360 ul of defined liquid growth medium (LGM; as referenced in Example 1, Westfall et al, 2012) with 50 mM succinate (pH 5.0) and 2% sucrose+1% maltose+2 g/L lysine grown for 72 h at 28 C. […] Taking measurements of farnesene, biomass, and total residual sugar during log phase growth (at two times, T1 and T2) allows for the determination of specific productivity, growth rate, and specific sugar uptake rate. Farnesene is measured using full-well extraction with isopropanol, and quantified by UV absorbance at 220 nm with reference to a standard curve. Biomass was measured by assaying the fluorescent signal of intracellular tryptophan with an excitation wavelength of 290 nm and detection at 350 nm (UVOD). The relationship between this tryptophan signal and actual biomass is strain-dependent, and is determined empirically for each strain assayed. We do this by measuring both UVOD and biomass absorbance (OD) just prior to the start of production plates; this gives a per-well OD/UVOD conversion factor that is then used to convert UVOD signal at the end of production runs back to biomass. Another conversion we must make in determining biomass is from optical density (OD) to dry cell weight; this is also determined empirically. […] Growth rates were determined by applying a linear regression to LN (OD) vs time. Total reducing sugars was measured by using an enzymatic determination of sucrose, fructose and glucose with an output of NADH absorption read at 340 nm, as described in various commercial kits, as such those sold by Sigma Aldrich.

Setting [2] is: increasing concentrations of benzoic acid.

As usually defined, the Km is the concentration of substrate that gives half-maximal velocity.

Read-outs that look alike come from different tables or passages of the source.

`CCC(=O)O` [Propionic Acid] yielded a YCR50 with biomass yield of 20.0 mM.
For `CC(=O)O` [Acetic Acid], the YCR50 with biomass yield amounted to 105.0 mM.
Take `NC(=O)C1=CN([C@@H]2O[C@H](COP(=O)(O)OP(=O)(O)OC[C@H]3O[C@@H](n4cnc5c(N)ncnc54)[C@H](OP(=O)(O)O)[C@@H]3O)[C@@H](O)[C@H]2O)C=CC1` [NADPH]: the Km on HMGR from E. faecalis was 30 µM; on HMGR from A. fulgidus (read-out: Km^NADPH) it was 500 µM; in the assay with HMGR from S. aureus (read-out: Km^NADPH) it was 70 µM.
As for `C/C=C/C=C/C(=O)O` [Sorbic Acid], in the assay with biomass yield, the YCR50 amounted to 1.3 mM.
In the case of `NC(=O)C1=CN([C@@H]2O[C@H](COP(=O)(O)OP(=O)(O)OC[C@H]3O[C@@H](n4cnc5c(N)ncnc54)[C@H](O)[C@@H]3O)[C@@H](O)[C@H]2O)C=CC1` [NADH], the Km at HMGR from P. mevalonii was 80 µM; at HMGR from A. fulgidus (read-out: Km^NADH), 160 µM; with HMGR from S. aureus (read-out: Km^NADH) it was 100 µM.
Regarding `O=C(O)c1ccccc1` [Benzoic Acid], in assay [1] (increased benzoic acid concentrations), the “calculated yield (qP/qS)” value was “increased”. Moreover, in assay [1] (setting [2]), the “specific farnesene productivity (qP)” value was “did not change and even increased a little at intermediate concentrations”; the “specific growth rate (mu)” value is “decreased linearly”. Besides, the YCR50 in the assay on biomass yield was 2.0 mM.

The values are drawn from patent US12098407B2, “Methods for decoupling yield and productivity of a non-catabolic compound produced by a host cell” (AMYRIS, INC., priority 2019, dated 2024).
